The text below walks through data of article PMC9617638 (Journal of medicinal chemistry, 2019).

In data set [1] the target is SERT (Rattus norvegicus, UniProt P31652). As to the kind of experiment: SERT binding assay, [3H]citalopram, rat brain stem membranes. The settings on record: DAT versus SERT Ki.
Data set [2] deals with σ1 receptor (Cavia porcellus, UniProt Q60492). As to the kind of experiment: σ1 receptor binding assay, [3H]. On the set-up: species or system guinea pig. Conditions: for selectivity for σ1R over DAT and SERT (in words): σ1R versus monoamine transporters.
Chain of σ1 receptor (Q60492 whole entry): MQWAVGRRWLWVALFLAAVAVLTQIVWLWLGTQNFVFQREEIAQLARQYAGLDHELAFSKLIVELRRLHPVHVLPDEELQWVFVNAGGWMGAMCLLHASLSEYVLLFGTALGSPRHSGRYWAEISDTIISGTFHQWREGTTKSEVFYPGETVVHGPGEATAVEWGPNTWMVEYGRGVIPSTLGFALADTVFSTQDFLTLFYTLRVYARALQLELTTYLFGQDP
Data set [3] concerns the target DAT (Rattus norvegicus, UniProt P23977). The experiment in a line: DAT binding assay, [3H]WIN 35,428, rat striatum membranes. The settings on record: for DAT Ki values (in words): terminal piperazine amine changed to amide.
In data set [4] the target is hERG (Homo sapiens, UniProt Q12809). As to the kind of experiment: hERG current block. It is filed as cell-based. The settings on record: hERG IC50 over DAT Ki. (hERG is a cardiac potassium channel; its block is linked to QT prolongation.)
Chain of hERG (Q12809 whole entry): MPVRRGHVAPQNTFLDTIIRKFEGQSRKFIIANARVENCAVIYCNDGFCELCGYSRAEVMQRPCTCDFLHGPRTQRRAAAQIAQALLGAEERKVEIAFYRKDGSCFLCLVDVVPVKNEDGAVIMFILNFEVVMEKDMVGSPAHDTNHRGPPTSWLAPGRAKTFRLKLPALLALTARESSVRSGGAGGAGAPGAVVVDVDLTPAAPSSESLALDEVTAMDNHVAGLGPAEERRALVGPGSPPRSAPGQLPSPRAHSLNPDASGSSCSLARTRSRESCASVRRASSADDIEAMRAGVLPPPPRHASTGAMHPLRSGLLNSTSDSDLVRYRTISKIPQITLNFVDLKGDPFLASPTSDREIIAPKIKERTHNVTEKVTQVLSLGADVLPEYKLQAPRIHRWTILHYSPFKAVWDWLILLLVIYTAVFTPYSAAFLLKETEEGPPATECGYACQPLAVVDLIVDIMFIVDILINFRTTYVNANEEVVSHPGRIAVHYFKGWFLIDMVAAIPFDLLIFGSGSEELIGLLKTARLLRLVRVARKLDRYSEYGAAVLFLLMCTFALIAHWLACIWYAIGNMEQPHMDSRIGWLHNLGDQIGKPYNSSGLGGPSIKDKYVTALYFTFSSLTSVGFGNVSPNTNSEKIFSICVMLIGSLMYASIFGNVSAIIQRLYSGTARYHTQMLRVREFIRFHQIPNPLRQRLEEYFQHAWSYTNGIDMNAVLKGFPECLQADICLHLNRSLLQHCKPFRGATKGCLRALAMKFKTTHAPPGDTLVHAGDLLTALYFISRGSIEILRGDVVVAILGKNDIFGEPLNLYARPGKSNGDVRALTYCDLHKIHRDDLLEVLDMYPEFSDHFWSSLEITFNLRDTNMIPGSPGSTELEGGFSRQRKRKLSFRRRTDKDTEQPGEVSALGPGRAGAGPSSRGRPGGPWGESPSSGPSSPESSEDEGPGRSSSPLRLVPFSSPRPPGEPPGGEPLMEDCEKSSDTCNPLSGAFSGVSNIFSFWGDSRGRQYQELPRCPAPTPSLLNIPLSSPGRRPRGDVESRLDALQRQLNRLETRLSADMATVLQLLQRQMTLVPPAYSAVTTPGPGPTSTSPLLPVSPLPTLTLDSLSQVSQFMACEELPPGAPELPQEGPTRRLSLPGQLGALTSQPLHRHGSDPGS
A short description of data set [5]: Off-target binding interactions. Conditions: concentration of 100 nM.
Data set [6] in a line: Phase I metabolic stability in mouse liver microsomes. Conditions: for phase I metabolic stability (in words): mouse liver microsomes, 60 min; for compound remaining: mouse microsomes fortified with NADPH, 60 min (1 h). In kind it is in vitro ADME. A general note: Liver microsomes are a subcellular fraction often used to study metabolism.
Data set [7] relates to mouse locomotion. The experiment in a line: Locomotor activity in mice. It is filed as in vivo. Conditions: i.p., 2 h session, cocaine 3-30 mg/kg, 14a 1-30 mg/kg, 14b/14c 1-10 mg/kg.
Data set [8] in a line: Metabolic stability in human liver microsomes. It is filed as in vitro ADME.
Data set [9] deals with DAT Y156F mutant (Homo sapiens, UniProt Q01959, Y156F). It is filed as binding. Conditions: read-out: Y156F Ki, COS7 cells, mean [SE interval].
Chain of DAT Y156F mutant (Q01959 whole entry Y156F): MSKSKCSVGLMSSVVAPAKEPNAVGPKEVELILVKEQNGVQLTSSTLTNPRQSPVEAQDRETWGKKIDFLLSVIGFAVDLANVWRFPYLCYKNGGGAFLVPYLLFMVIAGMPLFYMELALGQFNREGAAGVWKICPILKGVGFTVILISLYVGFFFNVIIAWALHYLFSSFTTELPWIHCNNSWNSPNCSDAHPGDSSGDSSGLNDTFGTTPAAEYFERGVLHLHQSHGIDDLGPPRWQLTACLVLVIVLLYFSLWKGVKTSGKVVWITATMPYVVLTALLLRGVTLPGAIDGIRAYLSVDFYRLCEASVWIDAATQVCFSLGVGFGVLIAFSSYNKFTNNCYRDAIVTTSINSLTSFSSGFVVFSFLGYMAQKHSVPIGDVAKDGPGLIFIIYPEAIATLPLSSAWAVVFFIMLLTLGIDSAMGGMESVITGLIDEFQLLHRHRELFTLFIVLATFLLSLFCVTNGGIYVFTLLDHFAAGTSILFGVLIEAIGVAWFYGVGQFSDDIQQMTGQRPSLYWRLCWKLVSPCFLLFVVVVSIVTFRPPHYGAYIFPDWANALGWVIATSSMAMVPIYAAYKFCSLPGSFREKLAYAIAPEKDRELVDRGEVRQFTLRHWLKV

Several values for one entry are separate records, joined by “and”; a condition that tells them apart may be missing. Equal entries are not always repeated. Entries after “also recorded” stand apart in the source; their conditions may differ.

Chain of DAT (P23977 whole entry): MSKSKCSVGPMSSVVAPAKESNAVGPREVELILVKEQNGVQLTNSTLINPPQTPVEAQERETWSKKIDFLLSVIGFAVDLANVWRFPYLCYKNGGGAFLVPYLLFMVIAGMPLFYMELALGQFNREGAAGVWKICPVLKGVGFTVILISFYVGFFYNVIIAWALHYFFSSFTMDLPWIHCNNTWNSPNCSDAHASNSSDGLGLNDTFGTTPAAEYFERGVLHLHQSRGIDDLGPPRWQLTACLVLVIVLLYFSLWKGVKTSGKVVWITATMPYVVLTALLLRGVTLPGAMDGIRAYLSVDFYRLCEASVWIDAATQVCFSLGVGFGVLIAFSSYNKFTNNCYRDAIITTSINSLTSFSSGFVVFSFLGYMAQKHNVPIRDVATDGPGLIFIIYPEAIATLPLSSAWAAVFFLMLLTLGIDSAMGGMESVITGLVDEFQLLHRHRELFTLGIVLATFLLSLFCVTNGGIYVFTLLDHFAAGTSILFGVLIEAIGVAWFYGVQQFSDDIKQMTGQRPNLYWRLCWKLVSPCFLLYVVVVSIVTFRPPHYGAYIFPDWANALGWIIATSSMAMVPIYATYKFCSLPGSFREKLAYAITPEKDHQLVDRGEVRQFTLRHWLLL
Chain of SERT (P31652 whole entry): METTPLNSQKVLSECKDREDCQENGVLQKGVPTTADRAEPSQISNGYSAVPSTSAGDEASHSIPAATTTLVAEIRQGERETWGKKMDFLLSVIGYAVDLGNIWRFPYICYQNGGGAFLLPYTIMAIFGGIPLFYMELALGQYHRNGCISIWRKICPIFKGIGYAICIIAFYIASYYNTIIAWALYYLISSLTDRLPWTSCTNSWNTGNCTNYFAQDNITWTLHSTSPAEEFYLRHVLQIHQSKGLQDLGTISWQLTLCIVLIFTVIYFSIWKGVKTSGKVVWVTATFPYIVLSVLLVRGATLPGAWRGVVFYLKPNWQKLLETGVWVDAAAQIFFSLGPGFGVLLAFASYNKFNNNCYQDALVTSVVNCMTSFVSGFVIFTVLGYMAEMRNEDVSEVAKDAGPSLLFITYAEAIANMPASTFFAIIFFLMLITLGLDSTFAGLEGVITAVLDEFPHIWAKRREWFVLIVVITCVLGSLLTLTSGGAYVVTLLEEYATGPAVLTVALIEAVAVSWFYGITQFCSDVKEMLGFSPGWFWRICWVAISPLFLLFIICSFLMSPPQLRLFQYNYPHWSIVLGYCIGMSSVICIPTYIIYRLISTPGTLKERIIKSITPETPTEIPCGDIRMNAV

Take “1-(4-(2-((Bis(4-fluorophenyl)methyl)thio)ethyl)piperazin-1-yl)-2-phenylethan-1-one [8f]”: the “selectivity for DAT over SERT (in words)” value in data set [1] is “equivalent”. Besides, the “selectivity for σ1R over DAT and SERT (in words)” value (from here on “selectivity for σ1R”) in data set [2] is “σ1R selective”. The “DAT Ki values (in words)” value in [3] is “low micromolar range”.

Turning to `CC(O)CN1CCN(CCSC(c2ccc(F)cc2)c2ccc(F)cc2)CC1` (stereo not shown) [3a, reference compound], the hERG/DAT affinity ratio in data set [4] came to 3.

In the case of `CC(O)CN1CCN(CC[S+]([O-])C(c2ccc(F)cc2)c2ccc(F)cc2)CC1` (stereo not shown) [3b, 1-(4-(2-((bis(4-fluorophenyl)methyl)sulfinyl)ethyl)-piperazin-1-yl)-propan-2-ol, reference compound], in data set [5], the off-target interactions result is reported as “no significant interactions”.

With `OC(Cc1ccc(F)cc1)CN1CCN(CCSC(c2ccc(F)cc2)c2ccc(F)cc2)CC1` (stereo not shown) [8a, 1-(4-(2-((Bis(4-fluorophenyl)methyl)thio)ethyl)piperazin-1-yl)-3-(4-fluorophenyl)propan-2-ol], in data set [6], the “phase I metabolic stability (in words)” value is listed as “almost no compound present after 60 min”.

For `O[C@@H](Cc1ccccc1)CN1CCN(CCSC(c2ccc(F)cc2)c2ccc(F)cc2)CC1` [8d, (S)-1-(4-(2-((Bis(4-fluorophenyl)methyl)thio)ethyl)piperazin-1-yl)-3-phenylpropan-2-ol], the “phase I metabolic stability (in words)” value in data set [6] was “almost no compound present after 60 min”.

Turning to `O[C@H](Cc1ccccc1)CN1CCN(CCSC(c2ccc(F)cc2)c2ccc(F)cc2)CC1` [8e, (R)-1-(4-(2-((Bis(4-fluorophenyl)methyl)thio)ethyl)piperazin-1-yl)-3-phenylpropan-2-ol], the “phase I metabolic stability (in words)” value in data set [6] is on record as “almost no compound present after 60 min”.

For `CC(=O)CN1CCN(CCSC(c2ccc(F)cc2)c2ccc(F)cc2)CC1` [8g, 1-(4-(2-((Bis(4-fluorophenyl)methyl)thio)ethyl)piperazin-1-yl)propan-2-one], the “selectivity for σ1R” value in data set [2] was “σ1R selective”. Besides, the “decrease of DAT affinity compared to 3a” value in [3] (2-propanol oxidised to 2-propanone) was ~ 5 fold.

On to `CCC(=O)N1CCN(CCSC(c2ccc(F)cc2)c2ccc(F)cc2)CC1` [11d, 1-(4-(2-((Bis(4-fluorophenyl)methyl)thio)ethyl)piperazin-1-yl)propan-1-one], for which the “selectivity for DAT over SERT (in words)” value in data set [1] was “equivalent”. In addition, the “selectivity for σ1R” value in [2] was “σ1R selective”. The “DAT Ki values (in words)” value in data set [3] is listed as “low micromolar range”.

As for `C[C@H](O)CN1CCN(CC[S+]([O-])C(c2ccc(F)cc2)c2ccc(F)cc2)CC1` (stereo partly drawn) [12a, (S)-1-(4-(2-((Bis(4-fluorophenyl)methyl)sulfinyl)ethyl)piperazin-1-yl)propan-2-ol], the “phase I metabolic stability (in words)” value in [6] was “exceptional and similar metabolic stability”.

As to `C[C@@H](O)CN1CCN(CC[S+]([O-])C(c2ccc(F)cc2)c2ccc(F)cc2)CC1` (stereo partly drawn) [12b, (R)-1-(4-(2-((Bis(4-fluorophenyl)methyl)sulfinyl)ethyl)piperazin-1-yl)propan-2-ol], in data set [6], the “phase I metabolic stability (in words)” value was “exceptional and similar metabolic stability”.

Consider `[O-][S+](CCCN1CCN(CCCc2ccccc2)CC1)C(c1ccc(F)cc1)c1ccc(F)cc1` (stereo not shown) [12c, 1-(3-((Bis(4-fluorophenyl)methyl)sulfinyl)propyl)-4-(3-phenylpropyl)piperazine], for which the “phase I metabolic stability (in words)” value in [6] is given as “almost no compound present after 60 min”.

One may read the Ki as the dissociation constant of the complex between target and ligand, obtained from inhibition or displacement. As for `CC(O)CN1[C@H](C)CN(CCSC(c2ccc(F)cc2)c2ccc(F)cc2)C[C@@H]1C` (stereo partly drawn) [14a, 1-(4-(2-((Bis(4-fluorophenyl)methyl)thio)ethyl)-2,6-cis-dimethylpiperazin-1-yl)propan-2-ol], in [2] (σ1 versus DAT), the “higher binding affinity at σ1 receptors than at DAT” value is ~ 4 fold. Moreover, the “locomotor (ambulatory) activity, maximum distance traveled in 30 min” value in data set [7] is “not significantly different than vehicle; also recorded: only moderate locomotor stimulation”. In addition, in [5], the off-target interactions entry was “no significant interactions”. The “metabolic stability (in words)” value in [8] is listed as “moderate metabolic stability”. Further, in data set [9], the inhibition constant (Ki) came out at 269 nM.

Turning to `CC(O)CN1[C@H](C)CN(CC[S+]([O-])C(c2ccc(F)cc2)c2ccc(F)cc2)C[C@@H]1C` (stereo partly drawn) [15a, 1-(4-(2-((Bis(4-fluorophenyl)methyl)sulfinyl)ethyl)-2,6-cis-dimethylpiperazin-1-yl)propan-2-ol], in data set [6], the compound remaining is given as 30–44%. Also, in [5], the off-target interactions result is “no significant interactions”. For the same compound, the hERG/DAT affinity ratio in [4] is 30.

In the case of `C[C@@H]1CN(CC[S+]([O-])C(c2ccc(F)cc2)c2ccc(F)cc2)C[C@H](C)N1CC(O)Cc1ccccc1` (stereo partly drawn) [15b, 1-(4-(2-((Bis(4-fluorophenyl)methyl)sulfinyl)ethyl)-2,6-cis-dimethylpiperazin-1-yl)-3-phenylpropan-2-ol], the “phase I metabolic stability (in words)” value in [6] was “almost no compound present after 60 min”. Also, the off-target interactions result in data set [5] is on record as “no significant interactions”.

Take `OC(CN1CCC2(CCN(CCSC(c3ccc(F)cc3)c3ccc(F)cc3)CC2)C1)c1ccccc1` (stereo not shown) [18b, 2-(8-(2-((Bis(4-fluorophenyl)methyl)thio)ethyl)-2,8-diazaspiro[4.5]decan-2-yl)-1-phenylethan-1-ol]: the “selectivity for DAT over SERT (in words)” value in data set [1] was “not selective for DAT over SERT; also recorded: equivalent”. Moreover, in data set [2], the “selectivity for σ1R” value is reported as “binding preference for σ1R”. Also, in data set [6], the compound remaining is 30–44% and 44%.

`CC(O)CN1CCC2(CCN(CC[S+]([O-])C(c3ccc(F)cc3)c3ccc(F)cc3)CC2)C1` (stereo not shown) [compound 19, 1-(8-(2-((Bis(4-fluorophenyl)methyl)sulfinyl)ethyl)-2,8-diazaspiro[4.5]decan-2-yl)propan-2-ol]: the “selectivity for DAT over SERT (in words)” value in [1] is on record as “not selective for DAT over SERT; also recorded: equivalent”. In [2], the “selectivity for σ1R” value is recorded as “binding preference for σ1R”.
